Laboratory results reported in PubChem BioAssay AID248 (DTP/NCI, 2004).
Where “and” joins values, the source holds several entries; their conditions need not be identical. Equal values may be shown once. Toxic doses and inconclusive results are not listed.

Test system: L1210 leukemia ip in BDF1 mice, survival T/C
Experiment: NCI In Vivo Anticancer Drug Screen. Data for tumor model L1210 Leukemia (intraperitoneal) in B6D2F1 (BDF1) mice
Settings: endpoint: mean survival time, higher = longer survival
Method in brief: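 Transplanted-tumor mice were given test agent; controls received vehicle only. Survival readings from the two groups were divided (treated over control).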

[1] = dose: 100.0 mg/kg/injection, schedule: Q01DX001 (ip), vehicle: carboxymethylcellulose (CMC)
[2] = dose: 100.0 mg/kg/injection, schedule: Q04DX003 (ip), vehicle: Klucel (hydroxypropylcellulose) (HPC)
[3] = dose: 200.0 mg/kg/injection, schedule: Q01DX001 (ip), vehicle: carboxymethylcellulose (CMC)
[4] = dose: 200.0 mg/kg/injection, schedule: Q04DX003 (ip), vehicle: Klucel (hydroxypropylcellulose) (HPC)
[5] = dose: 400.0 mg/kg/injection, schedule: Q01DX001 (ip), vehicle: carboxymethylcellulose (CMC)
[6] = dose: 400.0 mg/kg/injection, schedule: Q04DX003 (ip), vehicle: Klucel (hydroxypropylcellulose) (HPC)
[7] = dose: 100.0 mg/kg/injection, schedule: Q04DX003 (ip), vehicle: saline with Tween-80
[8] = dose: 200.0 mg/kg/injection, schedule: Q04DX003 (ip), vehicle: saline with Tween-80
[9] = dose: 400.0 mg/kg/injection, schedule: Q04DX003 (ip), vehicle: saline with Tween-80
[10] = dose: 100.0 mg/kg/injection, schedule: Q01DX009 (ip), vehicle: saline with Tween-80
[11] = dose: 200.0 mg/kg/injection, schedule: Q01DX009 (ip), vehicle: saline with Tween-80
[12] = dose: 400.0 mg/kg/injection, schedule: Q01DX009 (ip), vehicle: saline with Tween-80
[13] = dose: 100.0 mg/kg/injection, schedule: Q04DX002 (ip), vehicle: saline with Tween-80
[14] = dose: 200.0 mg/kg/injection, schedule: Q04DX002 (ip), vehicle: saline with Tween-80
[15] = dose: 400.0 mg/kg/injection, schedule: Q04DX002 (ip), vehicle: saline with Tween-80
[16] = dose: 100.0 mg/kg/injection, schedule: Q01DX001 (ip), vehicle: Klucel (hydroxypropylcellulose) (HPC)
[17] = dose: 200.0 mg/kg/injection, schedule: Q01DX001 (ip), vehicle: Klucel (hydroxypropylcellulose) (HPC)
[18] = dose: 400.0 mg/kg/injection, schedule: Q01DX001 (ip), vehicle: Klucel (hydroxypropylcellulose) (HPC)
[19] = dose: 100.0 mg/kg/injection, schedule: Q01DX009 (ip), vehicle: Klucel (hydroxypropylcellulose) (HPC)
[20] = dose: 200.0 mg/kg/injection, schedule: Q01DX009 (ip), vehicle: Klucel (hydroxypropylcellulose) (HPC)
[21] = dose: 400.0 mg/kg/injection, schedule: Q01DX009 (ip), vehicle: Klucel (hydroxypropylcellulose) (HPC)
[22] = dose: 100.0 mg/kg/injection, schedule: Q04DX002 (ip), vehicle: Klucel (hydroxypropylcellulose) (HPC)
[23] = dose: 200.0 mg/kg/injection, schedule: Q04DX002 (ip), vehicle: Klucel (hydroxypropylcellulose) (HPC)

`O=[N+]([O-])c1cc(S(=O)(=O)Oc2ccccc2)ccc1Cl` was tested, and the T/C (dose: 12.5 mg/kg/injection, schedule: Q01DX009 (ip), vehicle: Klucel (hydroxypropylcellulose) (HPC)) was 105 % of control, the T/C (dose: 25.0 mg/kg/injection, schedule: Q01DX009 (ip), vehicle: Klucel (hydroxypropylcellulose) (HPC)) was 105 % of control and the T/C (dose: 50.0 mg/kg/injection, schedule: Q01DX001 (ip), vehicle: carboxymethylcellulose (CMC)) was 116 % of control. The T/C (dose: 50.0 mg/kg/injection, schedule: Q01DX009 (ip), vehicle: Klucel (hydroxypropylcellulose) (HPC)) was 100 % of control, the T/C [1] was 100 % of control and the T/C [2] was 98 % of control. The T/C [3] was 100 % of control, the T/C [4] was 103 % of control and the T/C [5] was 105 % of control. For the same compound, the T/C [6] was 89 % of control.

`CCC(N)Cc1ccc(OC)c(OC)c1` (stereo not given) was tested, and the T/C (dose: 100.0 mg/kg/injection, schedule: Q01DX009 (ip), vehicle: saline) was 98 % of control, the T/C (dose: 100.0 mg/kg/injection, schedule: Q04DX003 (ip), vehicle: saline) was 93 % of control and the T/C (dose: 200.0 mg/kg/injection, schedule: Q01DX009 (ip), vehicle: saline) was 98 % of control. For the same compound, the T/C (dose: 200.0 mg/kg/injection, schedule: Q04DX003 (ip), vehicle: saline) was 97 % of control.

With `CCCCNC(=O)C1C2C=CC(CC2)C1C(=O)NCCCC` (stereo not given) the T/C [7] was 104 % of control, the T/C [8] was 100 % of control and the T/C [9] was 96 % of control.

For `CCNc1cc(Cl)nc(N)n1`, the T/C [10] was 92 % of control, the T/C [7] was 105 % of control and the T/C [11] was 101 % of control. The T/C [8] was 98 % of control, the T/C [12] was 104 % of control and the T/C [9] was 104 % of control.

`CCOC(=O)CN(c1ccccc1C(=O)OC)S(=O)(=O)c1ccc(C)cc1` was tested, and the T/C [1] was 112 % of control, the T/C [3] was 114 % of control and the T/C [5] was 107 % of control.

For `O=C(O)c1c(CN2CCOCC2)c(O)c(O)c(O)c1CN1CCOCC1`, the T/C (dose: 100.0 mg/kg/injection, schedule: Q01DX001 (ip), vehicle: saline) was 103 % of control, the T/C (dose: 200.0 mg/kg/injection, schedule: Q01DX001 (ip), vehicle: saline) was 107 % of control and the T/C (dose: 400.0 mg/kg/injection, schedule: Q01DX001 (ip), vehicle: saline) was 103 % of control.

With `COc1ccc(NC(=O)NO)cc1` the T/C (dose: 50.0 mg/kg/injection, schedule: Q04DX002 (ip), vehicle: saline with Tween-80) was 108 % of control, the T/C [13] was 101 % of control and the T/C [14] was 108 % of control.

With `O=C(CCc1ccc(C(=O)Nc2ccc(C3=NCCN3)cc2)cc1)Nc1ccc(C2=NCCN2)cc1` the T/C (dose: 1.87 mg/kg/injection, schedule: Q01DX Z (ip), vehicle: carboxymethylcellulose (CMC)) was 101 % of control, the T/C (dose: 3.75 mg/kg/injection, schedule: Q01DX Z (ip), vehicle: carboxymethylcellulose (CMC)) was 103 % of control and the T/C (dose: 7.5 mg/kg/injection, schedule: Q01DX Z (ip), vehicle: carboxymethylcellulose (CMC)) was 99 % of control. The T/C (dose: 15.0 mg/kg/injection, schedule: Q01DX Z (ip), vehicle: carboxymethylcellulose (CMC)) was 235 % of control, the T/C (dose: 30.0 mg/kg/injection, schedule: Q01DX Z (ip), vehicle: carboxymethylcellulose (CMC)) was 223 % of control and 295 % of control and the T/C (dose: 60.0 mg/kg/injection, schedule: Q01DX Z (ip), vehicle: carboxymethylcellulose (CMC)) was 239 % of control and 262 % of control.

With `Cc1c2ccccc2c(C)c2c1ccc1ccccc12` the T/C (dose: 6.25 mg/kg/injection, schedule: Q01DX001 (ip), vehicle: acetone) was 123 % of control and the T/C (dose: 12.37 mg/kg/injection, schedule: Q04DX003 (ip), vehicle: saline with Tween-80) was 112 % of control.

With `CN1Cc2cc3cc(c2O)C[N+](C)(C)Cc2c(Cl)c(c(Cl)c(c2Cl)C[N+](C)(C)C3)C1` the T/C (dose: 12.5 mg/kg/injection, schedule: Q01DX009 (ip), vehicle: saline) was 98 % of control, the T/C (dose: 12.5 mg/kg/injection, schedule: Q04DX003 (ip), vehicle: saline) was 97 % of control and the T/C (dose: 25.0 mg/kg/injection, schedule: Q01DX009 (ip), vehicle: saline) was 98 % of control. For the same compound, the T/C (dose: 25.0 mg/kg/injection, schedule: Q04DX003 (ip), vehicle: saline) was 97 % of control and the T/C (dose: 50.0 mg/kg/injection, schedule: Q04DX003 (ip), vehicle: saline) was 92 % of control.

With `CCCCCC(C)NCCOC(=O)c1ccc([N+](=O)[O-])cc1` (stereo not given) the T/C (dose: 75.0 mg/kg/injection, schedule: Q01DX001 (ip), vehicle: other) was 103 % of control, the T/C (dose: 150.0 mg/kg/injection, schedule: Q01DX001 (ip), vehicle: other) was 103 % of control and the T/C (dose: 300.0 mg/kg/injection, schedule: Q01DX001 (ip), vehicle: other) was 106 % of control.

`CC(C)CCCC(C)C1CCC2(C)C3=C(C(=O)CC12C)C1(C)CCC(O)C(C)(C)C1/C(=N\O)C3=O` (stereo not given) was tested, and the T/C [7] was 94 % of control, the T/C [8] was 96 % of control and the T/C [9] was 97 % of control.

`CC1=CC(C)=NC2NNC(=O)C12` (stereo not given) was tested, and the T/C [13] was 100 % of control, the T/C [14] was 103 % of control and the T/C [15] was 96 % of control.

In the case of `O=c1ccncn1Cc1ccccc1`, the T/C [16] is reported as 100 % of control, the T/C [17] is reported as 97 % of control and the T/C [18] is reported as 91 % of control.

With `c1ccc(/C(=N\Nc2nc3ccccc3s2)c2ccncc2)cc1` the T/C [19] was 89 % of control, the T/C [20] was 91 % of control and the T/C [21] was 96 % of control.

`O=C1OCC/C1=C/OCCO/C=C1\CCOC1=O` was tested, and the T/C [22] was 94 % of control and the T/C [23] was 90 % of control.

For `O=C(Nc1ccc(Cl)cc1[N+](=O)[O-])Oc1ccc(-c2ccccc2)cc1Cl`, the T/C (dose: 100.0 mg/kg/injection, schedule: Q01DX001 (ip), vehicle: saline with Tween-80) was 92 % of control, the T/C [10] was 95 % of control and 91 % of control and the T/C [13] was 101 % of control and 102 % of control. The T/C [7] was 97 % of control, the T/C (dose: 200.0 mg/kg/injection, schedule: Q01DX001 (ip), vehicle: saline with Tween-80) was 94 % of control and the T/C [11] was 94 % of control and 89 % of control. The T/C [14] was 101 % of control and 91 % of control, the T/C [8] was 103 % of control and the T/C (dose: 400.0 mg/kg/injection, schedule: Q01DX001 (ip), vehicle: saline with Tween-80) was 89 % of control. The T/C [12] was 99 % of control and 103 % of control, the T/C [15] was 88 % of control and 91 % of control and the T/C [9] was 103 % of control.

`N#CCCN(C(=S)Nc1cccc(C(F)(F)F)c1)C1CCCCC1` was tested, and the T/C [16] was 96 % of control, the T/C [19] was 107 % of control and 108 % of control and the T/C [22] was 102 % of control and 104 % of control. The T/C [2] was 98 % of control, the T/C [17] was 90 % of control and the T/C [20] was 101 % of control and 107 % of control. For the same compound, the T/C [23] was 108 % of control and 114 % of control, the T/C [4] was 97 % of control and the T/C [18] was 98 % of control. The T/C [21] was 96 % of control and 112 % of control, the T/C (dose: 400.0 mg/kg/injection, schedule: Q04DX002 (ip), vehicle: Klucel (hydroxypropylcellulose) (HPC)) was 100 % of control and 101 % of control and the T/C [6] was 97 % of control.

With `CCOCCOCCOC(C)Oc1ccc(Cl)cc1` (stereo not given) the T/C (dose: 100.0 mg/kg/injection, schedule: Q04DX002 (ip), vehicle: saline) was 96 % of control, the T/C (dose: 200.0 mg/kg/injection, schedule: Q04DX002 (ip), vehicle: saline) was 90 % of control and the T/C (dose: 400.0 mg/kg/injection, schedule: Q04DX002 (ip), vehicle: saline) was 104 % of control.

`CCc1ccc(OC/C=C(/C)CC/C=C(\C)CCC=C(C)C)cc1` was tested, and the T/C [13] was 110 % of control, the T/C [14] was 97 % of control and the T/C [15] was 87 % of control.

In the case of `CCCCSP(Oc1ccccc1)SCCCC`, the T/C [19] is reported as 89 % of control.

`CCOc1ccc(OCC(=O)O)cc1` was tested, and the T/C [2] was 93 % of control, the T/C [4] was 89 % of control and the T/C [6] was 89 % of control.

For `O=C(CCOCc1ccccc1)N1Cc2cc3ccccc3nc2C1=O`, the T/C (dose: 10.0 mg/kg/injection, schedule: Q07DX002 (ip), vehicle: alcohol) was 89 % of control, the T/C (dose: 20.0 mg/kg/injection, schedule: Q07DX002 (ip), vehicle: alcohol) was 99 % of control and the T/C (dose: 40.0 mg/kg/injection, schedule: Q07DX002 (ip), vehicle: alcohol) was 92 % of control. For the same compound, the T/C (dose: 80.0 mg/kg/injection, schedule: Q07DX002 (ip), vehicle: alcohol) was 86 % of control.
